Experiments:
[1] = test system: MMP-2; assay: N-terminomic (TMT) analysis of MMP-treated HEK293 secretome: isotopic enrichment of novel N-termini; assay type: biochemical, human; details: for isotopic enrichment (log2(ratio)): MMP2 cleavages in HEK293 cell proteins, determined by LC-MS/MS, novel N-termini, sections log2(ratio) >3σ, 2σ-3σ, 1σ-2σ, RP above 4.5
Method: (§1) This was done to achieve a reasonable compromise between the false positive and false negative rates based on the statistical model developed by the authors. […] (See Methods for details).
(§2) HEK293 cells were seeded in 150-mm tissue culture dishes (Corning) and grown to confluence. The confluent cultures were washed with PBS several times to remove serum proteins and kept in serum-free DMEM supplemented with 1 μM GM6001 for 72 hours at 37 C, 5% CO2. The conditioned media was centrifuged at 10,000 x g for 30 minutes at 4 C and concentrated ~100-fold using Centricon Plus-70 (AMD Millipore) 3-kDa m.w. cut-off ultrafilter, and the buffer was exchanged to 50 mM HEPES pH 7.0 containing 150 mM NaCl and 10 mM CaCl2 (Reaction Buffer) using a PD-10 desalting column (GE Healthcare). Aliquots containing 240 μg total protein were incubated at 37 C in the presence of 750 nM MMP2 or 9 or the Reaction Buffer alone for 2 hours. Each reaction was carried out in duplicate. The reactions were stopped by addition of 20 mM EDTA and subjected to denaturation/reduction (4M Urea and 10 mM TCEP, 1 h, 22°C) and alkylation (20 mM iodoacetamide, 30 min, 22°C, in dark). […] The TMT-labeled samples were pooled together, and subjected to TCA precipitation (20% TCA, 16 h, 4°C). Each pellet was washed with -20°C acetone, recovered in 50 mM Tris-HCl pH 8.0, and then digested with trypsin/Lys-C (Promega) for 16 h at 37°C. Digestions were stopped with 0.2% TFA and centrifuged to remove insoluble material. The supernatants were then desalted using Sep-Pak C18 cartridge (50 mg), and then lyophilized.
(§3) Dried pooled sample was reconstituted in 20 mM ammonium formate pH ~10 and fractionated using a Waters Acquity BEH C18 column (2.1x 15 cm, 1.7 μm pore size) mounted on an M-Class Ultra Performance Liquid Chromatography (UPLC) system (Waters). […] A total of 32 fractions were collected and pooled in a non-contiguous manner into 16 total fractions. Pooled fractions were dried to completeness in a SpeedVac concentrator prior to mass spectrometry analysis.
(§4) Dried peptide fractions were reconstituted with 2% ACN-0.1% FA and analyzed by LC-MS/MS using a Proxeon EASY nanoLC system (Thermo Fisher Scientific) coupled to a Q-Exactive Plus mass spectrometer (Thermo Fisher Scientific). […] The mass spectrometer was operated in positive data-dependent acquisition mode. MS1 spectra were measured with a resolution of 70,000 (AGC target: 1e6; mass range: 350–1700 m/z).
(§5) The false discovery rate (FDR) filter for spectrum and protein identification was set to 1%. Carbamidomethylation of cysteines was searched as a fixed modification, while oxidation of methionines and N-terminal acetylation were searched as variable modifications. Enzyme was set to trypsin in a semispecific mode and a maximum of two missed cleavages was allowed for searching. To obtain quantification of the TMT-labeled N-termini, two independent searches were performed–one with TMT10plex MS2 N-terminal reporter quantification and the other for quantification of N-terminal and lysine sidechain.

[2] = test system: MMP-9; assay: as above; assay type: biochemical, human; details: for isotopic enrichment (log2(ratio)) (acc.to MMP9): HEK293 proteins; for isotopic enrichment (log2(ratio)): MMP9 cleavages in HEK293 cell proteins, determined by LC-MS/MS, log2(ratio) range (>3σ, 2σ-3σ, 1σ-2σ)
Method: as §1, §2, §3, §4, §5

[3] = test system: MMP-9; assay: Substrate phage display with NGS: relative probability (RP) of P3-P1' tetramer clusters; assay type: biochemical, human; details: MMP9; RP of the substrate's P3-P1' tetramer, substrate phage display with NGS;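 note: ratio of tetramer probability after protease selection to that in naive phage library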
[4] = biological target: T1, MMP-2 (Homo sapiens, UniProt P08253); assay: K(obs) of individual phage substrates (set of 1369); assay type: biochemical; details: MMP2; individual phage substrate from the set of 1369 peptides; hyphen in the sequence marks the cleavage position
T1 sequence (P08253 110-660): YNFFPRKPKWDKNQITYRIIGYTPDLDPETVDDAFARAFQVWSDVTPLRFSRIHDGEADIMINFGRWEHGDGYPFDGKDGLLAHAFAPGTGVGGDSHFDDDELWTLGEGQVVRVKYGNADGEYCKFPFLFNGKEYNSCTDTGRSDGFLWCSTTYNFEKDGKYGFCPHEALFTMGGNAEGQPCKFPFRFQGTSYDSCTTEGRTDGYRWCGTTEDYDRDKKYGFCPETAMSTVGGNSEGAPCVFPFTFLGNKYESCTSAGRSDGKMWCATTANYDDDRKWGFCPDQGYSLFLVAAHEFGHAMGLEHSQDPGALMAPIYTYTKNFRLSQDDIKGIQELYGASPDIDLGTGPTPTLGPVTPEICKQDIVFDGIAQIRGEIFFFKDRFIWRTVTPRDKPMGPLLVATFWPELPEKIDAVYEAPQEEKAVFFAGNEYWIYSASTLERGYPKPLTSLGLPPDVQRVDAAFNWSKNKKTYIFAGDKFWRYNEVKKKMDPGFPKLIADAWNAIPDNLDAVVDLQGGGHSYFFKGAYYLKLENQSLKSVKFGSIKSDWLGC

[5] = biological target: MMP-9 (Homo sapiens, UniProt P14780); assay: as above; assay type: biochemical; details: MMP9; individual phage substrate of the set of 1369 peptides; dash in sequence marks cleavage position
MMP-9 (Homo sapiens, UniProt P14780), sequence (P14780 94-707): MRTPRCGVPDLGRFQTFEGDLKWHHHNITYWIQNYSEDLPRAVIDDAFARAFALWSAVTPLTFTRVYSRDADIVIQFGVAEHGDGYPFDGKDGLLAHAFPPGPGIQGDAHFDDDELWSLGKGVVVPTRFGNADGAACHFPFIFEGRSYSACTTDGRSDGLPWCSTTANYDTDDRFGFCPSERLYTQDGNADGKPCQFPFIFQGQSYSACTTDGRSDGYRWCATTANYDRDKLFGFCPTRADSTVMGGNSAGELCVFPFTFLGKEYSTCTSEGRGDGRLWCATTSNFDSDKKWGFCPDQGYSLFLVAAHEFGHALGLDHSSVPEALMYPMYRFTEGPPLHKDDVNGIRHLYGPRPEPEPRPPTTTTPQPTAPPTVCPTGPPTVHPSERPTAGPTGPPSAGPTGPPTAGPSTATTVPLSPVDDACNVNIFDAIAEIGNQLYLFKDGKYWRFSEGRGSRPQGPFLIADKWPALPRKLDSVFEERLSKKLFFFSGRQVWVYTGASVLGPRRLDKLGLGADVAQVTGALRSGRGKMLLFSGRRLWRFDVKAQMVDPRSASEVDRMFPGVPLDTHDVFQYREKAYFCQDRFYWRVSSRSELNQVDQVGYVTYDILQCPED

[6] = MMP2 cleaved HEK293 proteins, common set of MMP2-9 selectome, LC-MS/MS
[7] = MS detected cleavage sequence, HEK293 proteins, common MMP2-9 selectome
[8] = MMP9, common set of MMP2-9 selectome, LC-MS/MS
[9] = MS detected cleavage sequence, common MMP2-9 selectome
[10] = MS detected cleavage sequence, HEK293 proteins, unique part of MMP2 selectome
[11] = MS detected cleavage sequence, unique part of MMP2 selectome

Row | Substance | isotopic enrichment (log2(ratio)) (acc.to MMP2) [1, 6] | isotopic enrichment (log2(ratio)) (acc.to MMP2) [1, 7] | isotopic enrichment (log2(ratio)) (acc.to MMP9) [2, 8] | isotopic enrichment (log2(ratio)) [2] | isotopic enrichment (log2(ratio)) (acc.to MMP9) [2, 9] | relative probability (RP) [3] | Kobs [4] [M⁻¹ s⁻¹] | Kobs [5] [M⁻¹ s⁻¹] | further results
1 | KRIAN-LQTDLS | 1.918 | 1.918 log2(ratio) | 1.791 | 1.791 | 1.791 log2(ratio) |  |  |  | 
2 | GEVQA-MLGQST |  | 0.5656 log2(ratio) |  | 1.4957 | 1.4957 log2(ratio) |  |  |  | 
3 | VCPRG-YVTSTD | 2.108 | 2.108 log2(ratio) | 5.174 | 5.174 | 5.174 log2(ratio) |  |  |  | 
4 | LDVGG-LQETDK | 3.076 | 3.076 log2(ratio) | 1.718 | 1.718 | 1.718 log2(ratio) |  |  |  | 
5 | GFLAW-LYNESP | 2.43 | 2.43 log2(ratio) | 1.774 | 1.774 | 1.774 log2(ratio) |  |  |  | 
6 | PEPPP-LSGAPQ | 1.367 | 1.367 log2(ratio) | 1.9855 | 1.9855 | 1.9855 log2(ratio) |  |  |  | 
7 | SYAGS-LAEPYE | 1.521 |  | 0.9635 |  |  |  |  |  | isotopic enrichment (log2(ratio)) [1]: 1.521 log2(ratio)
8 | GGGSA-LAGGAG |  |  |  |  |  |  |  |  | isotopic enrichment (log2(ratio)) (acc.to MMP2) [1, 10]: 3.0018 log2(ratio); isotopic enrichment (log2(ratio)) (acc.to MMP9) [2, 11]: 2.488 log2(ratio)
9 | RTLRA-VCGQPG |  | 0.2987 log2(ratio) |  | 1.47 | 1.47 log2(ratio) |  |  |  | 
10 | VNPVL-LSGPEA | 1.599 | 1.599 log2(ratio) | 2.457 | 2.457 | 2.457 log2(ratio) |  |  |  | 
11 | MVPRA-VYLPNC | 1.989 | 1.989 log2(ratio) | 2.491 | 2.491 | 2.491 log2(ratio) |  |  |  | 
12 | KYIGN-MHGNEA | 1.124 |  | 1.07 |  |  |  |  |  | isotopic enrichment (log2(ratio)) [1]: 1.124 log2(ratio)
13 | QLNAQ-LAAGNP |  |  |  |  |  |  |  |  | isotopic enrichment (log2(ratio)) (acc.to MMP2) [1, 10]: 1.66 log2(ratio); isotopic enrichment (log2(ratio)) (acc.to MMP9) [2, 11]: 0.8237 log2(ratio)
14 | LFIGG-LSFETT |  |  |  |  |  |  |  |  | isotopic enrichment (log2(ratio)) (acc.to MMP2) [1, 10]: 2.3505 log2(ratio); isotopic enrichment (log2(ratio)) (acc.to MMP9) [2, 11]: 1.4957 log2(ratio)
15 | LPPLG-FTASG |  |  |  |  |  | 44.5202 | 12792.1 | 10866.7 | 
16 | SGPSH-WIGTA |  |  |  |  |  | 19.8718 | 12792.1 | 7015.91 | 
17 | LQLAL-YTASG |  |  |  |  |  | 1.077 | 12792.1 | 912.511 | 
18 | GRPRS-LLTAS |  |  |  |  |  | 44.7764 | 12792.1 | 7815.03 | 
19 | HMPLG-LTASG |  |  |  |  |  | 48.9856 | 12792.1 | 12792.1 | 
20 | STIAH-YTASG |  |  |  |  |  | 10.3185 | 12792.1 | 451.441 | 
21 | HRPEW-YTASG |  |  |  |  |  | 25.7162 | 3741.87 | 4082.43 | 
22 | GVPSK-LTASG |  |  |  |  |  | 38.9571 | 12792.1 | 12792.1 | 
23 | PCPTG-LTASG |  |  |  |  |  | 39.8897 | 8321.48 | 3253.29 | 
24 | RDLGF-LTASG |  |  |  |  |  | 3.437 | 12792.1 | 0 | 
25 | HVPRQ-VTASG |  |  |  |  |  | 25.107 | 27.918 | 8941.32 | 
26 | TNVFW-YTASG |  |  |  |  |  | 29.291 | 2409.72 | 10866.7 | 
27 | GVLRN-LITAS |  |  |  |  |  | 37.603 | 12792.1 | 6688.74 | 
28 | SGPRS-HRVTA |  |  |  |  |  | 23.1314 | 3637.04 | 3253.29 | 
29 | TDIGE-ITASG |  |  |  |  |  | 0.4519 | 6131.32 | 0 | 
30 | VKPSK-LTASG |  |  |  |  |  | 38.9571 | 12792.1 | 12792.1 | 

— PMC7932537, “Quantitative profiling of protease specificity” (PLoS Computational Biology, 2021)
